From US20090264384A1, “INDOLE, BENZIMIDAZOLE, AND BENZOLACTAM BORONIC ACID COMPOUNDS, ANALOGS THEREOF AND METHODS OF USE THEREOF” (Nuada, Inc., priority 2004, published 2009)

How the values were obtained:
[1] = molecular target: T1, A2A(h) (Homo sapiens, UniProt P29274); assay: A2A(h) binding assay; details: 1.0E−05 M
T1 construct: expressed in transfected cells; host or cells: HEK-293 cells

[2] = molecular target: T2, β2(h) (Homo sapiens, UniProt P07550); assay: β2(h) binding assay; details: read-out: % Inhibition of Control Specific Binding
T2 construct: expressed in transfected cells; host or cells: Sf9 cells

[3] = test system: BZD (central); assay: BZD (central) binding assay; set-up: species or system rat; details: 1.0E−05 M
[4] = molecular target: T3, B2(h) (Homo sapiens, UniProt P30411); assay: B2(h) binding assay; details: 1.0E−05 M; read-out: % Inhibition of Control Specific Binding
T3 construct: expressed in transfected cells; host or cells: CHO cells
T3 sequence (P30411 whole entry): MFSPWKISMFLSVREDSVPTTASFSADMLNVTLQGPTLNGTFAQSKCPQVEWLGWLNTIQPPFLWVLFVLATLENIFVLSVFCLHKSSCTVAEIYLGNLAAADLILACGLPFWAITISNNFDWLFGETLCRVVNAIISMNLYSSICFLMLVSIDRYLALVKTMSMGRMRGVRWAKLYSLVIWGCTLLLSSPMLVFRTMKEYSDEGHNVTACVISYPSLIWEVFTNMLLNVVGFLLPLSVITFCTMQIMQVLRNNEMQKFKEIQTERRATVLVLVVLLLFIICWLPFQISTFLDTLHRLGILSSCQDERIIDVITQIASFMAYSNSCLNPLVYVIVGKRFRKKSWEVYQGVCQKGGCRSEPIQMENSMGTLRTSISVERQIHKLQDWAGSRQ

[5] = molecular target: T4, CB1(h) (Homo sapiens, UniProt P21554); assay: CB1(h) binding assay; details: 1.0E−05 M; read-out: % Inhibition of Control Specific Binding
T4 construct: expressed in transfected cells; host or cells: HEK-293 cells
T4 sequence (P21554 whole entry): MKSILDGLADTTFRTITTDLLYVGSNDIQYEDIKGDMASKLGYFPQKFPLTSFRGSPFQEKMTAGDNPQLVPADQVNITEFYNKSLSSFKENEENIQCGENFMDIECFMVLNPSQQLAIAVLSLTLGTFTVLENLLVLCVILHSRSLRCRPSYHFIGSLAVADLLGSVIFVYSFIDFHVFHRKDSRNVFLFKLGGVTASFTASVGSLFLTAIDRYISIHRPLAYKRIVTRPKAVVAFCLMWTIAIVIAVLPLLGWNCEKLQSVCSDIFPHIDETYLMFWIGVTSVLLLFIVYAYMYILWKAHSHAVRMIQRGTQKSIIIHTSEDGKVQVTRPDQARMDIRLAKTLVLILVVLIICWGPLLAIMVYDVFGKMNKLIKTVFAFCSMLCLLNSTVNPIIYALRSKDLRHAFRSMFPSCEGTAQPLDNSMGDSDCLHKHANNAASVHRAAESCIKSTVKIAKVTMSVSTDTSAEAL

[6] = molecular target: T5, CB2(h) (Homo sapiens, UniProt P34972); assay: CB2(h) binding assay; details: 1.0E−05 M; read-out: % Inhibition of Control Specific Binding
T5 construct: expressed in transfected cells; host or cells: HEK-293 cells
T5 sequence (P34972 whole entry): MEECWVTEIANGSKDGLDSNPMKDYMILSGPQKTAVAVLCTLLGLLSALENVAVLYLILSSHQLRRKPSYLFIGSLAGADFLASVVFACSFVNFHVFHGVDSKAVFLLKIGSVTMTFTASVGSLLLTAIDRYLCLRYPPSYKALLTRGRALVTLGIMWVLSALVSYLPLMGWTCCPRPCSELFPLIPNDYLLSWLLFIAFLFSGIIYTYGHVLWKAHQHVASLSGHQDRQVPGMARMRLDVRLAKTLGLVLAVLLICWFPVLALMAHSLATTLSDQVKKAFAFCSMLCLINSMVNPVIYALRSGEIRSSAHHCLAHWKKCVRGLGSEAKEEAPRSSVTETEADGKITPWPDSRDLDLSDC

[7] = molecular target: T6, ETA(h) (Homo sapiens, UniProt P25101); assay: ETA(h) binding assay; details: 1.0E−05 M; read-out: % Inhibition of Control Specific Binding
T6 construct: expressed in transfected cells; host or cells: CHO cells

[8] = test system: GABA (non-selective); type: binding, rat; details: 1.0E−05 M
[9] = test system: AMPA; assay: AMPA binding assay; set-up: species or system rat; details: 1.0E−05 M
[10] = test system: Kainate; assay: Kainate binding assay; set-up: species or system rat; details: 1.0E−05 M
[11] = test system: NMDA; assay: NMDA binding assay; set-up: species or system rat; details: 1.0E−05 M
[12] = molecular target: T7, H1(h) (Homo sapiens, UniProt P35367); assay: biochemical; details: 1.0E−05 M; read-out: % Inhibition of Control Specific Binding
T7 construct: expressed in transfected cells; host or cells: HEK-293 cells

[13] = molecular target: T8, H2(h) (Homo sapiens, UniProt P25021); assay: H2(h) binding assay; details: read-out: % Inhibition of Control Specific Binding
T8 construct: expressed in transfected cells; host or cells: CHO cells

[14] = test system: I1 (peripheral); assay: I1 (peripheral) binding assay; set-up: species or system bovine; details: 1.0E−05 M
[15] = molecular target: T9, NK1(h) (Homo sapiens, UniProt P25103); assay: NK1(h) binding assay; details: read-out: % Inhibition of Control Specific Binding
T9 construct: NK1(h); U-373MG cells; [Sar^9,Met(O2)^11]-SP; Heuillet et al. (1993); endogenous in cells; host or cells: U-373MG cells

[16] = test system: σ (non-selective); assay: σ (non-selective) binding assay; set-up: species or system rat; details: 1.0E−05 M
[17] = molecular target: T10, Androgen(h) (AR) (Homo sapiens, UniProt P10275, T878A); assay: Androgen(h) (AR) binding assay; details: 1.0E−05 M; read-out: % Inhibition of Control Specific Binding
T10 construct: LNCaP cells; endogenous in cells; host or cells: LNCaP cells (cytosol)

[18] = test system: TRH; assay: TRH binding assay; set-up: species or system rat; details: 1.0E−05 M
[19] = molecular target: T11, V1a(h) (Homo sapiens, UniProt P37288); assay: V1a(h) binding assay; details: 1.0E−05 M; read-out: % Inhibition of Control Specific Binding
T11 construct: expressed in transfected cells; host or cells: CHO cells

[20] = molecular target: Ca^2+ channel (L, DHP site) (Rattus norvegicus, UniProt P22002); assay: Ca^2+ channel (L, DHP site) binding assay; details: read-out: % Inhibition of Control Specific Binding
Chain of Ca^2+ channel (L, DHP site) (P22002 whole entry): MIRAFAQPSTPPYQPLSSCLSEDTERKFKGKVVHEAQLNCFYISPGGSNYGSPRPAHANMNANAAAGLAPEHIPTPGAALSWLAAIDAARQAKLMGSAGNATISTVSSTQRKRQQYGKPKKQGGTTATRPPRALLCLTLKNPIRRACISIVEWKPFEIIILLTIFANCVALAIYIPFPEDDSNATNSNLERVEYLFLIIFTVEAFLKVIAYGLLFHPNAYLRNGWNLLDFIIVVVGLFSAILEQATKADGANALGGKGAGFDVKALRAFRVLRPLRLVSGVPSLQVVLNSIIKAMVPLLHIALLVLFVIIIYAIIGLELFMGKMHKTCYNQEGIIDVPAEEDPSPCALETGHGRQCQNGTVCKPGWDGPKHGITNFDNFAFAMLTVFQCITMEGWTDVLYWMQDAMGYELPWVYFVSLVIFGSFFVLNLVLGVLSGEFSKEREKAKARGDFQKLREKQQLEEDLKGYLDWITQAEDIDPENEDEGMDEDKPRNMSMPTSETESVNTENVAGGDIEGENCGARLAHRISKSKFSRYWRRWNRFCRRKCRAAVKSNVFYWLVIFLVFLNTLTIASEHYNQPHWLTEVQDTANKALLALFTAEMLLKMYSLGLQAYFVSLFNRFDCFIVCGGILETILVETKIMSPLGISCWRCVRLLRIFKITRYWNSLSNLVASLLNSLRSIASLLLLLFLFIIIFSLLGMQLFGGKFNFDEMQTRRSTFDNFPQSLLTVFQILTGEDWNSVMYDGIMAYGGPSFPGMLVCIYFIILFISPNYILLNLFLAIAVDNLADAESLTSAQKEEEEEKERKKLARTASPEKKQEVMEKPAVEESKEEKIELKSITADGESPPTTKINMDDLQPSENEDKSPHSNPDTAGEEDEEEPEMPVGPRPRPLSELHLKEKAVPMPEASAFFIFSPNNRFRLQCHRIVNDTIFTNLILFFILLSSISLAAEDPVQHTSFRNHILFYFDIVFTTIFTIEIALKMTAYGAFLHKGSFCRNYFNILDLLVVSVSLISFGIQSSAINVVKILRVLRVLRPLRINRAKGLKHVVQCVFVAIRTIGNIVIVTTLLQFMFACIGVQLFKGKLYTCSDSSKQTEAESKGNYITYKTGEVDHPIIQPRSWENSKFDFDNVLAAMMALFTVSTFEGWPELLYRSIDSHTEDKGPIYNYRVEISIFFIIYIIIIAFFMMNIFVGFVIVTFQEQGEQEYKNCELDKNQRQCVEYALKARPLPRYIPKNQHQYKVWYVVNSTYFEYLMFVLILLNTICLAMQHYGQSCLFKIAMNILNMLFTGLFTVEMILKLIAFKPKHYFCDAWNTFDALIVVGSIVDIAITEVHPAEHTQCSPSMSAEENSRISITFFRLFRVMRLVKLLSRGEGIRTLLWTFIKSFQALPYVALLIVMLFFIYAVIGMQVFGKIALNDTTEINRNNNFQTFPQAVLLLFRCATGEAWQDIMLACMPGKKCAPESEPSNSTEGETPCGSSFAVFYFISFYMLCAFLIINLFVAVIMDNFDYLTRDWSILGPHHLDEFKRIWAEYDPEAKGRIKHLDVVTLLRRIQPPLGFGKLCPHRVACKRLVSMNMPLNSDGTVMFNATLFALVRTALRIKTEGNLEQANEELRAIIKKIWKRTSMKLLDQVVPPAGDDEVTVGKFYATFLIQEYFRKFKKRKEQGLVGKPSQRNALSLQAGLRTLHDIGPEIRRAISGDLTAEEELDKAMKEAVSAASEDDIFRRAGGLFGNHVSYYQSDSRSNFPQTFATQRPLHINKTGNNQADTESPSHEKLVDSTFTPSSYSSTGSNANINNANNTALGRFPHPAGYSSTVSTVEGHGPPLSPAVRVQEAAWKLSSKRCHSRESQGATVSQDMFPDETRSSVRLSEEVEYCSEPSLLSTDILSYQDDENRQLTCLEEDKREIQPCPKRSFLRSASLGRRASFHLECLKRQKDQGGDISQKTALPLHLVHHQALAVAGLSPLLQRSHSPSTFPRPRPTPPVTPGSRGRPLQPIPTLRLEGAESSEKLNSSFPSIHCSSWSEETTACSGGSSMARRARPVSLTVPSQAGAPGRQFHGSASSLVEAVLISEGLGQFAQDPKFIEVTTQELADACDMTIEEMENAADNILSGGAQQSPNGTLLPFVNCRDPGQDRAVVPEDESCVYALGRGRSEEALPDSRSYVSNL

[21] = test system: Ca^2+ channel (L, verapamil site) (phenylalkylamines); assay: Ca^2+ channel (L, verapamil site) binding assay; set-up: species or system rat; details: 1.0E−05 M
[22] = test system: SK^+Ca channel; assay: SK^+Ca channel binding assay; set-up: species or system rat; details: 1.0E−05 M
[23] = test system: Na^+ channel (site 2); type: binding, rat; details: 1.0E−05 M
[24] = molecular target: T12, NE transporter(h) (Homo sapiens, UniProt P23975); assay: NE transporter(h) binding assay; details: read-out: % Inhibition of Control Specific Binding
T12 construct: expressed in transfected cells; host or cells: MDCK cells

[25] = molecular target: T13, DA transporter(h) (Homo sapiens, UniProt Q01959); assay: DA transporter(h) binding assay; details: 1.0E−05 M; read-out: % Inhibition of Control Specific Binding
T13 construct: expressed in transfected cells; host or cells: CHO cells

[26] = molecular target: T14, 5-HT transporter(h) (Homo sapiens, UniProt P31645); assay: 5-HT transporter(h) binding assay; details: read-out: % Inhibition of Control Specific Binding
T14 construct: expressed in transfected cells; host or cells: HEK-293 cells

[27] = test system: Phosphodiesterase 1; assay: Phosphodiesterase 1 enzyme assay; type: biochemical, bovine; details: 1.0E−05 M
[28] = test system: Adenylyl cyclase (basal); assay: Adenylyl cyclase (basal) enzyme assay; type: biochemical, rat; details: 1.0E−05 M
[29] = molecular target: T15, Acetylcholinesterase(h) (Homo sapiens, UniProt P22303); assay: Acetylcholinesterase(h) enzyme assay; type: biochemical; details: 1.0E−05 M
T15 construct: host or cells: HEK-293 cells

[30] = molecular target: T16, Phenylethanolamine-N-methyl transferase (Bos taurus, UniProt P10938); assay: Phenylethanolamine-N-methyl transferase enzyme assay; type: biochemical, bovine; details: 1.0E−05 M
T16 construct: bovine adrenal; from tissue; host or cells: bovine adrenal medulla

[31] = test system: TNF-α production by PMBC; assay: Inhibition of TNF-α Production By Peripheral Blood Monocyte Cells (PMBC), LPS stimulated; type: cell-based; details: 1 ug/mL LPS, 24 hours
Protocol: PMBC in RPMI 1640 Cell Culture Medium (containing 1% Penicillin and 1% Streptomycin) are aliquoted into 96-well plates at 5×10^5 cells/well and pre-incubated with test compounds for 30 minutes at 37° C. After incubation, 1 ug/mL LPS is added to each well to stimulate TNF-α production and the plate is incubated for 24 hours at 37° C. After incubation, the supernatant is removed and the TNF-α secreted is quantified using EIA detection kits commercially available from R&D Systems (USA). The results from this assay are expressed as percent inhibition of control activity, with the control being stimulated wells with no test compound. Dexamethasone is used as a standard reference compound in the assay and is tested with each experiment. All test compounds are diluted from 10 mM stock solutions in 100% DMSO.

[32] = molecular target: HERG channel (Homo sapiens, UniProt Q12809); assay: ADME-Tox: QT Prolongation, HERG (patch-clamp)
Chain of HERG channel (Q12809 whole entry): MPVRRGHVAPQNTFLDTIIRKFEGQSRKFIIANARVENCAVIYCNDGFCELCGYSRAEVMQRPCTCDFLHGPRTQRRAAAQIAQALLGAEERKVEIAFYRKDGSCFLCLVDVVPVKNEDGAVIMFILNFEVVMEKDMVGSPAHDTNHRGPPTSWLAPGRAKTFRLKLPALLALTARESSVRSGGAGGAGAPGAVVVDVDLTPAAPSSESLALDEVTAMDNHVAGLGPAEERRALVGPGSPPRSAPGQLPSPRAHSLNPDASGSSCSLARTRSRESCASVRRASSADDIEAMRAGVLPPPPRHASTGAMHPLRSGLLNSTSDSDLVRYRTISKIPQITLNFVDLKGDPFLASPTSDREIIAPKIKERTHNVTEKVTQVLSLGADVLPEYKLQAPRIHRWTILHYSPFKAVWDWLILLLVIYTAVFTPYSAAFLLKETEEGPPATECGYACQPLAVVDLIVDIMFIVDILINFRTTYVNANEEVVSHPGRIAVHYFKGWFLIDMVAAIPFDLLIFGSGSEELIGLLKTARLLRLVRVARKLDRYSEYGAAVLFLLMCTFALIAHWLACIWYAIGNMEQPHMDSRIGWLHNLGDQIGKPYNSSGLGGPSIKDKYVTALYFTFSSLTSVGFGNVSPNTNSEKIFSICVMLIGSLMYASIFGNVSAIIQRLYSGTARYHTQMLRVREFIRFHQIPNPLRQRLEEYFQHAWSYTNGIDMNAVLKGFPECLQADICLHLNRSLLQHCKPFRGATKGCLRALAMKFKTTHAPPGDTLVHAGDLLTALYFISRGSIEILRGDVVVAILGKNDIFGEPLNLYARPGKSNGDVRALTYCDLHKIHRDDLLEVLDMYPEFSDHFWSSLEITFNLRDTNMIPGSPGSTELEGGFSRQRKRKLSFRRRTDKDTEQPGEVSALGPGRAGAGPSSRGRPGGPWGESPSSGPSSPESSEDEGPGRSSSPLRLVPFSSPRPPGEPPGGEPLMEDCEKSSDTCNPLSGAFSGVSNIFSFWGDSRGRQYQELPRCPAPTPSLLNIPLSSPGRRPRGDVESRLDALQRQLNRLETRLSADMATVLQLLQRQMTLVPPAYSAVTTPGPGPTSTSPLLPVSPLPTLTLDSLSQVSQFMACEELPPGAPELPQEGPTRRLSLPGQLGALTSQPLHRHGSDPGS

[33] = molecular target: hERG (Homo sapiens, UniProt Q12809); assay: ADME-Tox: QT Prolongation, HERG (patch-clamp); details: human, HEK-293 cells stably expressing HERG

T1 sequence (P29274 whole entry): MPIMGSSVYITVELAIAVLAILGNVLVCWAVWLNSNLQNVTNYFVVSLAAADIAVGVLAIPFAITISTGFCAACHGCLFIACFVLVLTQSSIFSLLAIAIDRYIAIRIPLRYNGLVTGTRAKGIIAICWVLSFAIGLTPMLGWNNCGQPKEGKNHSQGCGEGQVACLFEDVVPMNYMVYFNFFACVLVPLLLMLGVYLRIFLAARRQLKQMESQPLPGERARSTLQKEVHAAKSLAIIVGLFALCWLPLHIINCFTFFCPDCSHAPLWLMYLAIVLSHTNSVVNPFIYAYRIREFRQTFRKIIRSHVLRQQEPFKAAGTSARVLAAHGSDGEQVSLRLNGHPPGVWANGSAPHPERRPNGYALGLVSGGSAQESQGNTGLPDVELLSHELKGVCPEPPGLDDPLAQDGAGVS

SMILES: N#Cc1ccc2c(ccn2CCCCCB(O)O)c1 [Example 20, 5-(5-cyano-1H-indol-1-yl)pentylboronic acid]
- % Inhibition of Control Specific Binding [1]: 16%
- inhibition at 10 µM [2]: 5%
- % Inhibition of Control Specific Binding [3]: 18%
- inhibition at 10 µM [4]: 18%
- inhibition at 10 µM [5]: -2%
- inhibition at 10 µM [6]: -12%
- inhibition at 10 µM [7]: -25%
- % Inhibition of Control Specific Binding [8]: −15%
- % Inhibition of Control Specific Binding [9]: −3%
- % Inhibition of Control Specific Binding [10]: −6%
- % Inhibition of Control Specific Binding [11]: 19%
- inhibition at 10 µM [12]: 6%
- inhibition at 10 µM [13]: 15%
- % Inhibition of Control Specific Binding [14]: −6%
- inhibition at 10 µM [15]: 12%
- % Inhibition of Control Specific Binding [16]: 5%
- inhibition at 10 µM [17]: 40%
- % Inhibition of Control Specific Binding [18]: −17%
- inhibition at 10 µM [19]: 24%
- inhibition at 10 µM [20]: -10%
- % Inhibition of Control Specific Binding [21]: −12%
- % Inhibition of Control Specific Binding [22]: −15%
- % Inhibition of Control Specific Binding [23]: 13%
- inhibition at 10 µM [24]: 15%
- inhibition at 10 µM [25]: 47%
- inhibition at 10 µM [26]: 90%
- % Inhibition of Control Values [27]: 7%
- % Stimulation Relative to Control [28]: −3%
- % Inhibition of Control Values [29]: 11%
- % Inhibition of Control Values [30]: 1%
- IC50 [31]: 750 nM
- Potency Ranking ([32]; HERG-channel blocker ranking, from 1 μM test (Table 17)): Moderate (Moderate, 1 μM<IC50<10 μM)
- HERG-channel blocker potency class ([32]; general potency ranking system (Roche et al.)): moderate
- inhibition at 1 µM [33]: 31.1%
